These results are taken from article PMC10567702, “A concerted ATPase cycle of the protein transporter AAA-ATPase Bcs1” (Nature Communications, 2023).

In assay [1] the target is T1, Bcs1 (mBcs1) (Mus musculus, UniProt Q9CZP5).
T1 construct: gene Bcs1l; full length residues 1-418, C-terminal hexa-His tag, expressed in Pichia pastoris, purified in DDM, homo-heptamer; reconstituted in soy polar lipid membranes for HS-AFM
T1 sequence (Q9CZP5 1-418): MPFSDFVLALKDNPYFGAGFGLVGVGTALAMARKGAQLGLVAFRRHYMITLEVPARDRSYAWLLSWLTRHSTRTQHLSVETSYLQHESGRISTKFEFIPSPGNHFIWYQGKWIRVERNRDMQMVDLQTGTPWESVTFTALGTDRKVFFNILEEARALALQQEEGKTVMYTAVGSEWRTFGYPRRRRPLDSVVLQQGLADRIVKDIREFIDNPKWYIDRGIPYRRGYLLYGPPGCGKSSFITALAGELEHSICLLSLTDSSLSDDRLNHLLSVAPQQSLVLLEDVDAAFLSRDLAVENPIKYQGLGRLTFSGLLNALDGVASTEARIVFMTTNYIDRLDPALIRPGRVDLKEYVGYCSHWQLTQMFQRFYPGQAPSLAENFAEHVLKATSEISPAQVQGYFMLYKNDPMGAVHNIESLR
In words: microscale thermophoresis, RED-tris-NTA labelled Bcs1. The class given is binding. In general terms: MST reads how a fluorescent partner responds to local heating, with and without ligand.

The target of assay [2] is T1, Bcs1 (mBcs1). As to the kind of experiment: HS-AFM imaging, probability of AMP-PNP conformation, Hill fit. The class given is binding.
Assay [3] concerns the target T1, Bcs1 (mBcs1). In words: HS-AFM imaging, conformational change on binding. The following applies: 10 µM ATPγS; reconstituted membranes; 10 mM HEPES pH 7.5, 200 mM NaCl, 2 mM MgCl2; ambient temperature.

Structures are written as SMILES.

As to `Nc1ncnc2c1ncn2[C@@H]1O[C@H](COP(=O)(O)OP(=O)(O)O)[C@@H](O)[C@H]1O` [ADP], the equilibrium dissociation constant (Kd) at Bcs1 (mBcs1) [1] is about 500 nM.
In the case of `Nc1ncnc2c1ncn2[C@@H]1O[C@H](COP(=O)(O)OP(=O)(O)NP(=O)(O)O)[C@@H](O)[C@H]1O` [AMP-PNP], the concentration giving a half-maximal response (EC50) at Bcs1 (mBcs1) [2] was about 4000 nM.
Consider `Nc1ncnc2c1ncn2[C@@H]1O[C@H](COP(=O)(O)OP(=O)(O)OP(O)(O)=S)[C@@H](O)[C@H]1O` [ATPγS], for which the “HS-AFM imaging, conformational change on binding” value at Bcs1 (mBcs1) [3] is “In the presence of ATPγS however, instead of a ring structure, we found a rather flat disk”.

As usually defined, the Kd is the free concentration of one partner at which half of the binding sites on the other are occupied at equilibrium, for simple one-to-one binding. High values mean a looser complex, low ones a tighter complex. Usually EC50 stands for the concentration giving half of the maximal effect. Higher therefore signals a less potent agent.
